In patent US9708306B2, “Benzimidazole derivatives and preparation process and pharmaceutical uses thereof” (WUHAN LL SCIENCE AND TECHNOLOGY DEVELOPMENT CO., LTD, priority 2015, dated 2017):
Like-named read-outs stand apart in the source and are kept apart here.

Tests used:
[1] = tested on: normal rats; experiment: Effect on blood pressure of normal rats by single oral administration; format: in vivo, Wistar rats; conditions: Rattus norvegicus, po, single, normal rats; for inhibition in vivo at 0.5 mg/kg / inhibition in vivo at 1 mg/kg / inhibition in vivo at 2 mg/kg: 8 h, read-out: blood pressure reduction at 8 h after the administration; for inhibition in vivo at 0.5 mg/kg / change in vivo at 0.5 mg/kg: 0.5 mg/kg p.o.; for inhibition in vivo at 1 mg/kg / change in vivo at 1 mg/kg: 1.0 mg/kg p.o.; for inhibition in vivo at 2 mg/kg / change in vivo at 2 mg/kg: 2.0 mg/kg p.o.; for change in vivo at 0.5 mg/kg / change in vivo at 1 mg/kg / change in vivo at 2 mg/kg: read-out: variations on heart rate
[2] = tested on: renovascular hypertensive rats; experiment: Effect on reducing blood pressure of renovascular hypertensive rats by single oral administration; format: in vivo, Wistar rats; conditions: for change in vivo at 0.5 mg/kg / inhibition in vivo at 0.5 mg/kg / change in vivo at 1 mg/kg / inhibition in vivo at 1 mg/kg / change in vivo at 2 mg/kg / inhibition in vivo at 2 mg/kg: Rattus norvegicus, single oral administration; for change in vivo at 0.5 mg/kg / change in vivo at 1 mg/kg / change in vivo at 2 mg/kg: RHR, read-out: Variations on heart rate; for inhibition in vivo at 0.5 mg/kg / inhibition in vivo at 1 mg/kg / inhibition in vivo at 2 mg/kg: two-kidney one-clip RHR, measured 1-10 h, read-out: Maximum blood pressure reduction; for blood pressure reduction at 24 hours after the administration / blood pressure reduction effect compared with Azilsartan medoxomil / lasting time of the blood pressure reduction effect compared with Azilsartan medoxomil: renal artery-ligated rat; for blood pressure reduction at 24 hours after the administration: dose not stated; for blood pressure reduction effect compared with Azilsartan medoxomil / lasting time of the blood pressure reduction effect compared with Azilsartan medoxomil: result in words
[3] = tested on: spontaneously hypertensive rats (SHR); experiment: Effect on reducing blood pressure of spontaneously hypertensive rats (SHR) by multiple oral administrations; format: in vivo; conditions: for inhibition in vivo at 0.5 mg/kg / inhibition in vivo at 1 mg/kg / inhibition in vivo at 2 mg/kg: Rattus norvegicus; for inhibition in vivo at 0.5 mg/kg / inhibition in vivo at 1 mg/kg / inhibition in vivo at 2 mg/kg / blood pressure reduction effect compared with Azilsartan medoxomil: SHR; for blood pressure reduction effect compared with Azilsartan medoxomil / reduction effects on the heart rate of SHR rats: result in words; for reduction effects on the heart rate of SHR rats: during the whole administration
[4] = 0.5 mg/kg oral once per day, 1 hour after the administration, read-out: Maximum blood pressure reduction, 1st-day administration
[5] = 0.5 mg/kg oral once per day, 1 hour after the administration, read-out: Maximum blood pressure reduction, 7th-day administration
[6] = 0.5 mg/kg oral once per day, 1 hour after the administration, read-out: Maximum blood pressure reduction, 14th-day administration
[7] = 0.5 mg/kg oral, read-out: Heart Rate (effect on reducing heart rate)
[8] = 1.0 mg/kg oral once per day, 1 hour after the administration, read-out: Maximum blood pressure reduction, 1st-day administration
[9] = 1.0 mg/kg oral once per day, 1 hour after the administration, read-out: Maximum blood pressure reduction, 7th-day administration
[10] = 1.0 mg/kg oral once per day, 1 hour after the administration, read-out: Maximum blood pressure reduction, 14th-day administration
[11] = 1.0 mg/kg oral, read-out: Heart Rate (effect on reducing heart rate)
[12] = 2.0 mg/kg oral once per day, 1 hour after the administration, read-out: Maximum blood pressure reduction, 1st-day administration
[13] = 2.0 mg/kg oral once per day, 1 hour after the administration, read-out: Maximum blood pressure reduction, 7th-day administration
[14] = 2.0 mg/kg oral once per day, 1 hour after the administration, read-out: Maximum blood pressure reduction, 14th-day administration
[15] = 2.0 mg/kg oral, read-out: Heart Rate (effect on reducing heart rate)

SMILES	inhibition in vivo at 0.5 mg/kg [1] [%]	inhibition in vivo at 1 mg/kg [1] [%]	inhibition in vivo at 2 mg/kg [1] [%]	change in vivo at 0.5 mg/kg [1] [%]	change in vivo at 1 mg/kg [1] [%]	change in vivo at 2 mg/kg [1] [%]	change in vivo at 0.5 mg/kg [2] [%]	inhibition in vivo at 0.5 mg/kg [2] [%]	change in vivo at 1 mg/kg [2] [%]	inhibition in vivo at 1 mg/kg [2] [%]	change in vivo at 2 mg/kg [2] [%]	inhibition in vivo at 2 mg/kg [2] [%]	blood pressure reduction effect compared with Azilsartan medoxomil [2]	inhibition in vivo at 0.5 mg/kg [3, 4] [%]	inhibition in vivo at 0.5 mg/kg [3, 5] [%]	inhibition in vivo at 0.5 mg/kg [3, 6] [%]	inhibition in vivo at 1 mg/kg [3, 8] [%]	inhibition in vivo at 1 mg/kg [3, 9] [%]	inhibition in vivo at 1 mg/kg [3, 10] [%]	inhibition in vivo at 2 mg/kg [3, 12] [%]	other results
CCOc1nc2cccc(C(=O)OC(C)OC(=O)OCc3nc(C)c(C)nc3C)c2n1Cc1ccc(-c2ccccc2-c2noc(=O)[nH]2)cc1 (stereo not shown) [QR01019]	2.4 ± 3	4.2 ± 3.5	4.5 ± 6.5	-5 ± 5	-4 ± 6	8	12 ± 4	24 ± 4	25 ± 8	38 ± 3.8	28 ± 6	45 ± 7.5	obviously superior to that of the Azilsartan medoxomil positive drug	16 ± 6.2	15 ± 7.9	18 ± 4.5	36 ± 6.3	38 ± 4.6	35 ± 6.7	42 ± 4.8	blood pressure reduction at 24 hours after the administration [2]: 26%; lasting time of the blood pressure reduction effect compared with Azilsartan medoxomil [2]: close to that of Azilsartan medoxomil; inhibition in vivo at 0.5 mg/kg [3, 7]: 20 ± 6%; inhibition in vivo at 1 mg/kg [3, 11]: 18 ± 4%; inhibition in vivo at 2 mg/kg [3, 13]: 46 ± 6.7%; inhibition in vivo at 2 mg/kg [3, 14]: 48 ± 8.6%; inhibition in vivo at 2 mg/kg [3, 15]: 29 ± 2%; blood pressure reduction effect compared with Azilsartan medoxomil [3]: obviously superior to that of the Azilsartan medoxomil positive drug; reduction effects on the heart rate of SHR rats [3]: significant reduction effects on the heart rate
CCOc1nc2cccc(C(=O)OCOC(=O)OCc3no[n+]([O-])c3C)c2n1Cc1ccc(-c2ccccc2-c2noc(=O)[nH]2)cc1 [QR01020]	2.8 ± 5.3	3.9 ± 4.3	5.6 ± 3.2	-1 ± 4	-7 ± 3	3	-15 ± 3	25 ± 4.3	-28 ± 6	34 ± 6.8	-25 ± 8	48 ± 2.6	obviously superior to that of the Azilsartan medoxomil positive drug	19 ± 6.8	18 ± 6.9	21 ± 4.6	30 ± 5.5	32 ± 8.3	35 ± 6.2	36 ± 5.3	blood pressure reduction at 24 hours after the administration [2]: 15%; lasting time of the blood pressure reduction effect compared with Azilsartan medoxomil [2]: close to that of Azilsartan medoxomil; inhibition in vivo at 0.5 mg/kg [3, 7]: 16 ± 4%; inhibition in vivo at 1 mg/kg [3, 11]: 25 ± 3%; inhibition in vivo at 2 mg/kg [3, 13]: 42 ± 7.5%; inhibition in vivo at 2 mg/kg [3, 14]: 43 ± 7%; inhibition in vivo at 2 mg/kg [3, 15]: 18 ± 5%; reduction effects on the heart rate of SHR rats [3]: significant reduction effects on the heart rate
CCOc1nc2cccc(C(=O)OC(C)OC(=O)OCc3no[n+]([O-])c3C)c2n1Cc1ccc(-c2ccccc2-c2noc(=O)[nH]2)cc1 (stereo not shown) [QR01021]	2.7 ± 3.2	3.9 ± 3.8	2.8 ± 3.1	-4 ± 3	-2 ± 5	-1 ± 3	-6 ± 5	15 ± 2.1	-3 ± 6	28 ± 4.5	-12 ± 5	32 ± 5.2	close to that of Azilsartan medoxomil	23 ± 6.4	24 ± 4.1	25 ± 5	42 ± 7.7	40 ± 3.8	44 ± 5.1	44 ± 6	inhibition in vivo at 2 mg/kg [3, 13]: 44 ± 8.7%; inhibition in vivo at 2 mg/kg [3, 14]: 46 ± 5.9%; blood pressure reduction effect compared with Azilsartan medoxomil [3]: obviously superior to that of the Azilsartan medoxomil positive drug
CCOc1nc2cccc(C(=O)OCc3no[n+]([O-])c3C)c2n1Cc1ccc(-c2ccccc2-c2noc(=O)[nH]2)cc1 [QR01023]	5.3 ± 1.4	3.6 ± 6.1	4.3 ± 2.1	-3 ± 2	6	-3 ± 5	-8 ± 5	18 ± 2.3	-16 ± 7	32 ± 8.1	-23 ± 6	42 ± 4.6	obviously superior to that of the Azilsartan medoxomil positive drug	25 ± 8.2	24 ± 7.1	25 ± 6.8	39 ± 6	38 ± 7	42 ± 5.3	45 ± 7.3	blood pressure reduction at 24 hours after the administration [2]: 18%; lasting time of the blood pressure reduction effect compared with Azilsartan medoxomil [2]: close to that of Azilsartan medoxomil; inhibition in vivo at 0.5 mg/kg [3, 7]: 20 ± 3%; inhibition in vivo at 1 mg/kg [3, 11]: 14 ± 4%; inhibition in vivo at 2 mg/kg [3, 13]: 48 ± 9.5%; inhibition in vivo at 2 mg/kg [3, 14]: 40 ± 8.2%; inhibition in vivo at 2 mg/kg [3, 15]: 23 ± 5%; blood pressure reduction effect compared with Azilsartan medoxomil [3]: obviously superior to that of the Azilsartan medoxomil positive drug; reduction effects on the heart rate of SHR rats [3]: significant reduction effects on the heart rate
